Laboratory results taken from patent publication US4746349A, “Method and compositions for suppressing the nitrification of ammonium in plant growth medium” (American Cyanamid Company, priority 1986, dated 1988).
Counter-ions that a name gives are not always drawn.

Experiments:
Nitrobacter spp. = test: Nitrite nitrogen in ammonium amended soil incubated at 25° C.; conditions: soil 25° C., 200 ppm N
Procedure: Determination of nitrite nitrogen and nitrate nitrogen in soil prepared in Example 1 above, which is amended with 200 ppm of nitrogen as aqueous ammonium sulfate, […], is determined using the nitrite and nitrate analysis of the American Organization of Analytical Chemists (AOAC pp. 653-655).

Nitrosomonas spp. = test: Nitrification of ammonium in soil incubated at 25° C. (ammonium recovery, nitrate accumulation); conditions: soil 25° C.; for Concentration of nitrate nitrogen / Recovery of Ammonium Nitrogen: 200 ppm N
Procedure: In these evaluations, one hundred grams (100 g) of oven dry, silt loam field soil with low residual nitrogen is added to a 6×12 cm screw-capped glass jar for each sampling date to provide an optimum environment for nitrification.
Two replicates of each treatment-sampling date are established. The soil is adjusted to 50% water saturation with an aqueous solution of ammonium sulfate at 200 ppm N and the chemical to be tested as a nitrification inhibitor at rates of from 0.10 to 0.50 ppm.
Incubation is at either 25° C. or 38° C. for 0, 1, 2, 4, 7, 9, 12, 16 or 20 weeks. Inorganic N is extracted by adding 2M KCl (10:1 v/w) and shaking for one hour, allowing settling for fifteen minutes. A 10 ml aliquot from the supernatant is assayed for ammonium, nitrite and nitrate by standard steam distillation methods (AOAC, pp. 653-655). Nitrapyrin (0.5 ppm) is used as a nitrification inhibitor for comparison. Benzyl alcohol, acetone, and a non-N amended soil are run as controls and as a check on mineralization.
Nitrification: Ammonium recovery and nitrate accumulation are indicative of nitrification, and data obtained with test compounds are reported in Tables I and II.

CC(C)=O [Acetone]
Concentration of nitrite nitrogen (Nitrobacter spp.; 5%, week 0): 6 ppm | Concentration of nitrite nitrogen (Nitrobacter spp.; 5%, week 1): 4 ppm | Concentration of nitrite nitrogen (Nitrobacter spp.; 5%, week 2): -1 ppm | Concentration of nitrite nitrogen (Nitrobacter spp.; 5%, week 4): 9 ppm | Concentration of nitrite nitrogen (Nitrobacter spp.; 5%, week 7): 56 ppm | Concentration of nitrite nitrogen (Nitrobacter spp.; 5%, week 9): 5 ppm | Concentration of nitrite nitrogen (Nitrobacter spp.; 5%, week 12): 20 ppm | Concentration of nitrite nitrogen (Nitrobacter spp.; 5%, week 16): 10 ppm | Concentration of nitrite nitrogen (Nitrobacter spp.; 5%, week 20): 11 ppm | Effect on nitrification, in words (Nitrosomonas spp.; 5%): initial rate of nitrification is slowed slightly | Concentration of nitrate nitrogen (Nitrosomonas spp.; 5%, week 0): 19 PPM | Recovery of Ammonium Nitrogen (Nitrosomonas spp.; 5%, week 0): 194 PPM | Concentration of nitrate nitrogen (Nitrosomonas spp.; 5%, week 1): 7 PPM | Recovery of Ammonium Nitrogen (Nitrosomonas spp.; 5%, week 1): 138 PPM | Concentration of nitrate nitrogen (Nitrosomonas spp.; 5%, week 2): 0 PPM | Recovery of Ammonium Nitrogen (Nitrosomonas spp.; 5%, week 2): 122 PPM | Concentration of nitrate nitrogen (Nitrosomonas spp.; 5%, week 4): 36 PPM | Recovery of Ammonium Nitrogen (Nitrosomonas spp.; 5%, week 4): 127 PPM | Concentration of nitrate nitrogen (Nitrosomonas spp.; 5%, week 7): 75 PPM | Recovery of Ammonium Nitrogen (Nitrosomonas spp.; 5%, week 7): 8 PPM | Concentration of nitrate nitrogen (Nitrosomonas spp.; 5%, week 9): 100 PPM | Recovery of Ammonium Nitrogen (Nitrosomonas spp.; 5%, week 9): 1 PPM | Concentration of nitrate nitrogen (Nitrosomonas spp.; 5%, week 12): 155 PPM | Recovery of Ammonium Nitrogen (Nitrosomonas spp.; 5%, week 12): 1 PPM | Concentration of nitrate nitrogen (Nitrosomonas spp.; 5%, week 16): 165 PPM | Recovery of Ammonium Nitrogen (Nitrosomonas spp.; 5%, week 16): 1 PPM

CC[C@@H](C(=O)[C@@H](C)[C@@H](O)[C@H](C)CCc1ccc(C)c(O)c1C(=O)O)[C@H]1O[C@](CC)([C@H]2CC[C@](O)(CC)[C@H](C)O2)C[C@@H]1C [Lasalocid sodium salt, Lasalocid]
Concentration of nitrite nitrogen (Nitrobacter spp.; 0.10 ppm, week 0): 8 ppm | Concentration of nitrite nitrogen (Nitrobacter spp.; 0.10 ppm, week 1): 2 ppm | Concentration of nitrite nitrogen (Nitrobacter spp.; 0.10 ppm, week 2): 1 ppm | Concentration of nitrite nitrogen (Nitrobacter spp.; 0.10 ppm, week 4): 15 ppm | Concentration of nitrite nitrogen (Nitrobacter spp.; 0.10 ppm, week 7): 12 ppm | Concentration of nitrite nitrogen (Nitrobacter spp.; 0.10 ppm, week 9): 10 ppm | Concentration of nitrite nitrogen (Nitrobacter spp.; 0.10 ppm, week 12): 5 ppm | Concentration of nitrite nitrogen (Nitrobacter spp.; 0.10 ppm, week 16): 6 ppm | Concentration of nitrite nitrogen (Nitrobacter spp.; 0.10 ppm, week 20): 11 ppm | Concentration of nitrite nitrogen (Nitrobacter spp.; 0.25 ppm, week 0): 5 ppm | Concentration of nitrite nitrogen (Nitrobacter spp.; 0.25 ppm, week 1): 0 ppm | Concentration of nitrite nitrogen (Nitrobacter spp.; 0.25 ppm, week 2): 3 ppm | Concentration of nitrite nitrogen (Nitrobacter spp.; 0.25 ppm, week 4): 2 ppm | Concentration of nitrite nitrogen (Nitrobacter spp.; 0.25 ppm, week 7): 0 ppm | Concentration of nitrite nitrogen (Nitrobacter spp.; 0.25 ppm, week 9): 3 ppm | Concentration of nitrite nitrogen (Nitrobacter spp.; 0.25 ppm, week 12): 8 ppm | Concentration of nitrite nitrogen (Nitrobacter spp.; 0.25 ppm, week 16): -1 ppm | Concentration of nitrite nitrogen (Nitrobacter spp.; 0.25 ppm, week 20): 40 ppm | Concentration of nitrite nitrogen (Nitrobacter spp.; 0.50 ppm, week 0): 7 ppm | Concentration of nitrite nitrogen (Nitrobacter spp.; 0.50 ppm, week 1): 2 ppm | Concentration of nitrite nitrogen (Nitrobacter spp.; 0.50 ppm, week 2): 6 ppm | Concentration of nitrite nitrogen (Nitrobacter spp.; 0.50 ppm, week 4): 2 ppm | Concentration of nitrite nitrogen (Nitrobacter spp.; 0.50 ppm, week 7): -4 ppm | Concentration of nitrite nitrogen (Nitrobacter spp.; 0.50 ppm, week 9): 2 ppm | Concentration of nitrite nitrogen (Nitrobacter spp.; 0.50 ppm, week 12): -11 ppm | Concentration of nitrite nitrogen (Nitrobacter spp.; 0.50 ppm, week 16): 7 ppm | Concentration of nitrite nitrogen (Nitrobacter spp.; 0.50 ppm, week 20): 7 ppm | Concentration of nitrate nitrogen (Nitrosomonas spp.; 0.10 ppm, week 0): 19 PPM | Recovery of Ammonium Nitrogen (Nitrosomonas spp.; 0.10 ppm, week 0): 194 PPM | Concentration of nitrate nitrogen (Nitrosomonas spp.; 0.10 ppm, week 1): 21 PPM | Recovery of Ammonium Nitrogen (Nitrosomonas spp.; 0.10 ppm, week 1): 177 PPM | Concentration of nitrate nitrogen (Nitrosomonas spp.; 0.10 ppm, week 2): 41 PPM | Recovery of Ammonium Nitrogen (Nitrosomonas spp.; 0.10 ppm, week 2): 143 PPM | Concentration of nitrate nitrogen (Nitrosomonas spp.; 0.10 ppm, week 4): 90 PPM | Recovery of Ammonium Nitrogen (Nitrosomonas spp.; 0.10 ppm, week 4): 109 PPM | Concentration of nitrate nitrogen (Nitrosomonas spp.; 0.10 ppm, week 7): 197 PPM | Recovery of Ammonium Nitrogen (Nitrosomonas spp.; 0.10 ppm, week 7): 7 PPM | Concentration of nitrate nitrogen (Nitrosomonas spp.; 0.10 ppm, week 9): 219 PPM | Recovery of Ammonium Nitrogen (Nitrosomonas spp.; 0.10 ppm, week 9): 0 PPM | Concentration of nitrate nitrogen (Nitrosomonas spp.; 0.10 ppm, week 12): 220 PPM | Recovery of Ammonium Nitrogen (Nitrosomonas spp.; 0.10 ppm, week 12): 8 PPM | Concentration of nitrate nitrogen (Nitrosomonas spp.; 0.10 ppm, week 16): 223 PPM | Recovery of Ammonium Nitrogen (Nitrosomonas spp.; 0.10 ppm, week 16): 3 PPM | Specific inhibition of nitrification through activity against Nitrosomonas spp., in words (Nitrosomonas spp.; 0.1 to 0.5 ppm): appear to specifically inhibit nitrification through activity against Nitrosomonas spp. | Concentration of nitrate nitrogen (Nitrosomonas spp.; 0.25 ppm, week 0): 18 PPM | Recovery of Ammonium Nitrogen (Nitrosomonas spp.; 0.25 ppm, week 0): 194 PPM | Concentration of nitrate nitrogen (Nitrosomonas spp.; 0.25 ppm, week 1): 21 PPM | Recovery of Ammonium Nitrogen (Nitrosomonas spp.; 0.25 ppm, week 1): 184 PPM | Concentration of nitrate nitrogen (Nitrosomonas spp.; 0.25 ppm, week 2): 18 PPM | Recovery of Ammonium Nitrogen (Nitrosomonas spp.; 0.25 ppm, week 2): 186 PPM | Concentration of nitrate nitrogen (Nitrosomonas spp.; 0.25 ppm, week 4): 28 PPM | Recovery of Ammonium Nitrogen (Nitrosomonas spp.; 0.25 ppm, week 4): 197 PPM | Concentration of nitrate nitrogen (Nitrosomonas spp.; 0.25 ppm, week 7): 26 PPM | Recovery of Ammonium Nitrogen (Nitrosomonas spp.; 0.25 ppm, week 7): 194 PPM | Concentration of nitrate nitrogen (Nitrosomonas spp.; 0.25 ppm, week 9): 68 PPM | Recovery of Ammonium Nitrogen (Nitrosomonas spp.; 0.25 ppm, week 9): 147 PPM | Concentration of nitrate nitrogen (Nitrosomonas spp.; 0.25 ppm, week 12): 46 PPM | Recovery of Ammonium Nitrogen (Nitrosomonas spp.; 0.25 ppm, week 12): 180 PPM | Concentration of nitrate nitrogen (Nitrosomonas spp.; 0.25 ppm, week 16): 158 PPM | Recovery of Ammonium Nitrogen (Nitrosomonas spp.; 0.25 ppm, week 16): 78 PPM | Concentration of nitrate nitrogen (Nitrosomonas spp.; 0.25 ppm, week 20): 154 PPM | Recovery of Ammonium Nitrogen (Nitrosomonas spp.; 0.25 ppm, week 20): 44 PPM | Concentration of nitrate nitrogen (Nitrosomonas spp.; 0.50 ppm, week 0): 18 PPM | Recovery of Ammonium Nitrogen (Nitrosomonas spp.; 0.50 ppm, week 0): 195 PPM | Concentration of nitrate nitrogen (Nitrosomonas spp.; 0.50 ppm, week 1): 18 PPM | Recovery of Ammonium Nitrogen (Nitrosomonas spp.; 0.50 ppm, week 1): 169 PPM | Concentration of nitrate nitrogen (Nitrosomonas spp.; 0.50 ppm, week 2): 14 PPM | Recovery of Ammonium Nitrogen (Nitrosomonas spp.; 0.50 ppm, week 2): 168 PPM | Concentration of nitrate nitrogen (Nitrosomonas spp.; 0.50 ppm, week 4): 18 PPM | Recovery of Ammonium Nitrogen (Nitrosomonas spp.; 0.50 ppm, week 4): 173 PPM | Concentration of nitrate nitrogen (Nitrosomonas spp.; 0.50 ppm, week 7): 18 PPM | Recovery of Ammonium Nitrogen (Nitrosomonas spp.; 0.50 ppm, week 7): 199 PPM | Concentration of nitrate nitrogen (Nitrosomonas spp.; 0.50 ppm, week 9): 17 PPM | Recovery of Ammonium Nitrogen (Nitrosomonas spp.; 0.50 ppm, week 9): 202 PPM | Concentration of nitrate nitrogen (Nitrosomonas spp.; 0.50 ppm, week 12): 20 PPM | Recovery of Ammonium Nitrogen (Nitrosomonas spp.; 0.50 ppm, week 12): 215 PPM | Concentration of nitrate nitrogen (Nitrosomonas spp.; 0.50 ppm, week 16): 52 PPM | Recovery of Ammonium Nitrogen (Nitrosomonas spp.; 0.50 ppm, week 16): 175 PPM | Concentration of nitrate nitrogen (Nitrosomonas spp.; 0.50 ppm, week 20): 26 PPM | Recovery of Ammonium Nitrogen (Nitrosomonas spp.; 0.50 ppm, week 20): 135 PPM
